Laboratory results from patent US9050326B2, “Amido derivatives-contained pharmaceutical composition” (priority 2008, dated 2015).
Values after ≈ are worked out from the molar mass of the structure shown.

How the values were obtained:
[1] = Solubility, dissolution test of the 15th Edition of the Japanese Pharmacopoeia; assay type: physicochemical; conditions: thermodynamic from solid, without storage, read-out: Solubility of compound A
[2] = Chemical stability against heat in manufacturing a solid dispersion with a twin screw extruder (melting method); assay type: physicochemical
Description: Salts, a clathrate, a solid dispersion, and the like are known as methods of improving the solubility of a slightly water-soluble drug. However, with respect to compound A per se, it is expected that a salt of compound A is desalted, even if the solubility is improved, and that the inclusion ability of cyclodextrin, which is commonly used as a host of clathrates, is low.

Cc1cccc(C)c1N(CC(=O)Nc1ccc(-c2ncon2)cc1)C(=O)C1CCS(=O)(=O)CC1 [Compound A, N-(2,6-Dimethylphenyl)-N-(2-{[4-(1,2,4-oxadiazol-3-yl)phenyl]amino}-2-oxoethyl)tetrahydro-2H-thiopyran-4-carboxamide 1,1-dioxide]
solubility [1]: 2 µg/mL (≈ 4.14 µM) | Chemical stability against heat [2]: low chemical stability against heat
